Laboratory results: PubChem BioAssay AID1259407 (Chemical Carcinogenesis Research Information System (CCRIS), 2018)
Active and inactive are the calls of the source. No rule for the calls is given here.

Test system: CCRIS mutagenicity, Ames/micronucleus/aberration tests
Experiment: CCRIS mutagenicity studies
[1] = Test System: AMES SALMONELLA TYPHIMURIUM, Strain/Indicator: TA98, Metabolic Activation: NONE, Method: PREINCUBATION
[2] = Test System: AMES SALMONELLA TYPHIMURIUM, Strain/Indicator: TA98, Metabolic Activation: NONE, Method: STANDARD PLATE
[3] = Test System: AMES SALMONELLA TYPHIMURIUM, Strain/Indicator: TA100, Metabolic Activation: NONE, Method: PREINCUBATION
[4] = Test System: AMES SALMONELLA TYPHIMURIUM, Strain/Indicator: TA100, Metabolic Activation: NONE, Method: STANDARD PLATE
[5] = Test System: AMES SALMONELLA TYPHIMURIUM, Strain/Indicator: TA1535, Metabolic Activation: NONE, Method: PREINCUBATION
[6] = Test System: AMES SALMONELLA TYPHIMURIUM, Strain/Indicator: TA1535, Metabolic Activation: NONE, Method: STANDARD PLATE
[7] = Test System: AMES SALMONELLA TYPHIMURIUM, Strain/Indicator: TA1537, Metabolic Activation: NONE, Method: PREINCUBATION
[8] = Test System: AMES SALMONELLA TYPHIMURIUM, Strain/Indicator: TA1537, Metabolic Activation: NONE, Method: STANDARD PLATE
[9] = Test System: AMES SALMONELLA TYPHIMURIUM, Strain/Indicator: TA1538, Metabolic Activation: NONE, Method: PREINCUBATION

CCCCCCCC/C=C\CCCCCCCC(=O)O
mutagenic call (Test System: AMES SALMONELLA TYPHIMURIUM, Strain/Indicator: TA97, Metabolic Activation: HAMSTER, LIVER, S-9, AROCLOR 1254 (10 OR 30%), Method: PREINCUBATION): inactive; negative
mutagenic call (Test System: AMES SALMONELLA TYPHIMURIUM, Strain/Indicator: TA97, Metabolic Activation: NONE, Method: PREINCUBATION): inactive; negative
mutagenic call (Test System: AMES SALMONELLA TYPHIMURIUM, Strain/Indicator: TA97, Metabolic Activation: RAT, LIVER, S-9, AROCLOR 1254 (10 OR 30%), Method: PREINCUBATION): inactive; negative
mutagenic call (Test System: AMES SALMONELLA TYPHIMURIUM, Strain/Indicator: TA98, Metabolic Activation: HAMSTER, LIVER, S-9, AROCLOR 1254 (10 OR 30%), Method: PREINCUBATION): inactive; negative
mutagenic call [1]: inactive; negative
mutagenic call [2]: inactive; negative
mutagenic call (Test System: AMES SALMONELLA TYPHIMURIUM, Strain/Indicator: TA98, Metabolic Activation: RAT, LIVER, S-9, AROCLOR 1254 (10 OR 30%), Method: PREINCUBATION): inactive; negative
mutagenic call (Test System: AMES SALMONELLA TYPHIMURIUM, Strain/Indicator: TA98, Metabolic Activation: RAT, LIVER, S-9, KC 500, Method: PREINCUBATION): inactive; negative
mutagenic call (Test System: AMES SALMONELLA TYPHIMURIUM, Strain/Indicator: TA98, Metabolic Activation: S-9, PHENOBARBITAL, Method: STANDARD PLATE): inactive; negative
mutagenic call (Test System: AMES SALMONELLA TYPHIMURIUM, Strain/Indicator: TA100, Metabolic Activation: HAMSTER, LIVER, S-9, AROCLOR 1254 (10 OR 30%), Method: PREINCUBATION): inactive; negative
mutagenic call [3]: inactive; negative
mutagenic call [4]: inactive; negative
mutagenic call (Test System: AMES SALMONELLA TYPHIMURIUM, Strain/Indicator: TA100, Metabolic Activation: RAT, LIVER, S-9, AROCLOR 1254 (10 OR 30%), Method: PREINCUBATION): inactive; negative
mutagenic call (Test System: AMES SALMONELLA TYPHIMURIUM, Strain/Indicator: TA100, Metabolic Activation: RAT, LIVER, S-9, KC 500, Method: PREINCUBATION): inactive; negative
mutagenic call (Test System: AMES SALMONELLA TYPHIMURIUM, Strain/Indicator: TA100, Metabolic Activation: S-9, PHENOBARBITAL, Method: STANDARD PLATE): inactive; negative
mutagenic call (Test System: AMES SALMONELLA TYPHIMURIUM, Strain/Indicator: TA1535, Metabolic Activation: HAMSTER, LIVER, S-9, AROCLOR 1254 (10 OR 30%), Method: PREINCUBATION): inactive; negative
mutagenic call [5]: inactive; negative
mutagenic call [6]: inactive; negative
mutagenic call (Test System: AMES SALMONELLA TYPHIMURIUM, Strain/Indicator: TA1535, Metabolic Activation: RAT, LIVER, S-9, AROCLOR 1254 (10 OR 30%), Method: PREINCUBATION): inactive; negative
mutagenic call (Test System: AMES SALMONELLA TYPHIMURIUM, Strain/Indicator: TA1535, Metabolic Activation: RAT, LIVER, S-9, KC 500, Method: PREINCUBATION): inactive; negative
mutagenic call (Test System: AMES SALMONELLA TYPHIMURIUM, Strain/Indicator: TA1535, Metabolic Activation: S-9, PHENOBARBITAL, Method: STANDARD PLATE): inactive; negative
mutagenic call [7]: inactive; negative
mutagenic call [8]: inactive; negative
mutagenic call (Test System: AMES SALMONELLA TYPHIMURIUM, Strain/Indicator: TA1537, Metabolic Activation: RAT, LIVER, S-9, KC 500, Method: PREINCUBATION): inactive; negative
mutagenic call (Test System: AMES SALMONELLA TYPHIMURIUM, Strain/Indicator: TA1537, Metabolic Activation: S-9, PHENOBARBITAL, Method: STANDARD PLATE): inactive; negative
mutagenic call [9]: inactive; negative
mutagenic call (Test System: AMES SALMONELLA TYPHIMURIUM, Strain/Indicator: TA1538, Metabolic Activation: RAT, LIVER, S-9, KC 500, Method: PREINCUBATION): inactive; negative
mutagenic call (Test System: E. COLI, Strain/Indicator: WP2 UVRA, Metabolic Activation: NONE, Method: PREINCUBATION): inactive; negative
mutagenic call (Test System: E. COLI, Strain/Indicator: WP2 UVRA, Metabolic Activation: NONE, Method: STANDARD PLATE): inactive; negative
mutagenic call (Test System: E. COLI, Strain/Indicator: WP2 UVRA, Metabolic Activation: RAT, LIVER, S-9, KC 500, Method: PREINCUBATION): inactive; negative
mutagenic call (Test System: E. COLI, Strain/Indicator: WP2 UVRA, Metabolic Activation: S-9, PHENOBARBITAL, Method: STANDARD PLATE): inactive; negative

CC(C)C[C@@H]1NC(=O)CNC1=O
mutagenic call [2]: inactive; negative
mutagenic call (Test System: AMES SALMONELLA TYPHIMURIUM, Strain/Indicator: TA98, Metabolic Activation: RAT, LIVER, S-9, AROCLOR 1254, Method: STANDARD PLATE): inactive; negative
mutagenic call [4]: inactive; negative
mutagenic call (Test System: AMES SALMONELLA TYPHIMURIUM, Strain/Indicator: TA100, Metabolic Activation: RAT, LIVER, S-9, AROCLOR 1254, Method: STANDARD PLATE): inactive; negative
mutagenic call [6]: inactive; negative
mutagenic call (Test System: AMES SALMONELLA TYPHIMURIUM, Strain/Indicator: TA1535, Metabolic Activation: RAT, LIVER, S-9, AROCLOR 1254, Method: STANDARD PLATE): inactive; negative
mutagenic call [8]: inactive; negative
mutagenic call (Test System: AMES SALMONELLA TYPHIMURIUM, Strain/Indicator: TA1537, Metabolic Activation: RAT, LIVER, S-9, AROCLOR 1254, Method: STANDARD PLATE): inactive; negative

CC(C)c1ccc(/C=C/c2ccc(N)cc2)cc1
mutagenic call [2]: inactive; negative
mutagenic call (Test System: AMES SALMONELLA TYPHIMURIUM, Strain/Indicator: TA98, Metabolic Activation: RAT, LIVER, S9, AROCLOR, Method: STANDARD PLATE): active; positive
mutagenic call [4]: inactive; negative
mutagenic call (Test System: AMES SALMONELLA TYPHIMURIUM, Strain/Indicator: TA100, Metabolic Activation: RAT, LIVER, S9, AROCLOR, Method: STANDARD PLATE): active; positive

C=CC[Si](C)(C)C
mutagenic call (Test System: AMES SALMONELLA TYPHIMURIUM, Strain/Indicator: TA98, Metabolic Activation: HAMSTER, LIVER, S-9, AROCLOR 1254 (10%), Method: PREINCUBATION): inactive; negative
mutagenic call [1]: inactive; negative
mutagenic call (Test System: AMES SALMONELLA TYPHIMURIUM, Strain/Indicator: TA98, Metabolic Activation: RAT, LIVER, S-9, AROCLOR 1254 (10%), Method: PREINCUBATION): inactive; negative
mutagenic call (Test System: AMES SALMONELLA TYPHIMURIUM, Strain/Indicator: TA100, Metabolic Activation: HAMSTER, LIVER, S-9, AROCLOR 1254 (10%), Method: PREINCUBATION): inactive; negative
mutagenic call [3]: inactive; negative
mutagenic call (Test System: AMES SALMONELLA TYPHIMURIUM, Strain/Indicator: TA100, Metabolic Activation: RAT, LIVER, S-9, AROCLOR 1254 (10%), Method: PREINCUBATION): inactive; negative
mutagenic call (Test System: AMES SALMONELLA TYPHIMURIUM, Strain/Indicator: TA1535, Metabolic Activation: HAMSTER, LIVER, S-9, AROCLOR 1254 (10%), Method: PREINCUBATION): inactive; negative
mutagenic call [5]: inactive; negative
mutagenic call (Test System: AMES SALMONELLA TYPHIMURIUM, Strain/Indicator: TA1535, Metabolic Activation: RAT, LIVER, S-9, AROCLOR 1254 (10%), Method: PREINCUBATION): inactive; negative
mutagenic call (Test System: AMES SALMONELLA TYPHIMURIUM, Strain/Indicator: TA1537, Metabolic Activation: HAMSTER, LIVER, S-9, AROCLOR 1254 (10%), Method: PREINCUBATION): inactive; negative
mutagenic call [7]: inactive; negative
mutagenic call (Test System: AMES SALMONELLA TYPHIMURIUM, Strain/Indicator: TA1537, Metabolic Activation: RAT, LIVER, S-9, AROCLOR 1254 (10%), Method: PREINCUBATION): inactive; negative
mutagenic call (Test System: AMES SALMONELLA TYPHIMURIUM, Strain/Indicator: TA1538, Metabolic Activation: HAMSTER, LIVER, S-9, AROCLOR 1254 (10%), Method: PREINCUBATION): inactive; negative
mutagenic call [9]: inactive; negative
mutagenic call (Test System: AMES SALMONELLA TYPHIMURIUM, Strain/Indicator: TA1538, Metabolic Activation: RAT, LIVER, S-9, AROCLOR 1254 (10%), Method: PREINCUBATION): inactive; negative
mutagenic call (Test System: MOUSE LYMPHOMA, Strain/Indicator: L5178Y (TK+/TK-), Metabolic Activation: NONE, Method: SUSPENSION/PLATE): inactive; negative. reevaluation of results: negative
mutagenic call (Test System: MOUSE LYMPHOMA, Strain/Indicator: L5178Y (TK+/TK-), Metabolic Activation: RAT, LIVER, S-9, AROCLOR 1254, Method: SUSPENSION/PLATE): inactive; negative. reevaluation of results: negative
